Measured values published in paper PMC8222254, “Self-assembly of an anion receptor with metal-dependent kinase inhibition and potent in vitro anti-cancer properties” (Nature Communications, 2021).
Where “and” joins values, the source holds several entries; their conditions need not be identical. Equal values may be shown once.

Assays:
Experiment in all cases: Kinase inhibition screen, cell-free 33P ATP assay at 10 μM
Assay type in all cases: biochemical
[1] = molecular target: T1, 140 purified human kinases (Homo sapiens, UniProt O75385)
T1 sequence (O75385 1-1050): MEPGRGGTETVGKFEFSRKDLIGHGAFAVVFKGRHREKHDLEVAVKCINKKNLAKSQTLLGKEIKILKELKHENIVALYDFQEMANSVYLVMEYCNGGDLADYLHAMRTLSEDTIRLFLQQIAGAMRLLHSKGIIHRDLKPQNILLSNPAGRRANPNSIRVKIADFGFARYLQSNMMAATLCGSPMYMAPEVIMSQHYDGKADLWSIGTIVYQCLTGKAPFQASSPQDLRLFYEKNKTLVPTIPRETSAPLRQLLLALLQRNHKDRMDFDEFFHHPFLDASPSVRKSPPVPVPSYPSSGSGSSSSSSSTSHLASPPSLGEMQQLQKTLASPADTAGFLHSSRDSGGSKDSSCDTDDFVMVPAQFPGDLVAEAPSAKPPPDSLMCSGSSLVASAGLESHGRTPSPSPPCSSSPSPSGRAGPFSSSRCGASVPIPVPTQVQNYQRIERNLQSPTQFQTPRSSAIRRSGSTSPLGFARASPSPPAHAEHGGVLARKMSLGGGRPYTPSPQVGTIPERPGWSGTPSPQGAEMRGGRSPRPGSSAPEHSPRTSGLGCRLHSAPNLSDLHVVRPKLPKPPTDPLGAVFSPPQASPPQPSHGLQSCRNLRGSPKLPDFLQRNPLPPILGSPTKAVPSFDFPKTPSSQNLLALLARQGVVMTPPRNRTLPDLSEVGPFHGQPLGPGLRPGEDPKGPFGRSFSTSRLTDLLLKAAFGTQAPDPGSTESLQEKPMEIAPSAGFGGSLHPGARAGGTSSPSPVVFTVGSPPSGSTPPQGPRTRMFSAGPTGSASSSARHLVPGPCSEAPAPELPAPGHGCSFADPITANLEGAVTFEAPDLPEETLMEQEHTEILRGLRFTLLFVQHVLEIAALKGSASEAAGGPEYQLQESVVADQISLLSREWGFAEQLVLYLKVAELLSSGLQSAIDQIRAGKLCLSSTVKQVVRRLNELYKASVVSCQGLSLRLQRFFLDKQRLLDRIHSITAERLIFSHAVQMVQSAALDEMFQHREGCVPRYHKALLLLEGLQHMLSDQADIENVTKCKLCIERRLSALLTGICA
Method in brief: (§1)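 Each complex tested in duplicate at 10 μM; cell-free radiometric assay using ^33P ATP on purified enzymes. Hits mapped by HGNC symbol onto the kinome tree.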

[2] = molecular target: T2, 140 purified human kinases (Homo sapiens, UniProt Q05513); conditions: PKCz; for % Activity inhibition Mean / % Activity inhibition Run 1 / % Activity inhibition Run 2 / % Activity remaining Run 1 / % Activity remaining Run 2: 10 µM
T2 sequence (Q05513 1-592): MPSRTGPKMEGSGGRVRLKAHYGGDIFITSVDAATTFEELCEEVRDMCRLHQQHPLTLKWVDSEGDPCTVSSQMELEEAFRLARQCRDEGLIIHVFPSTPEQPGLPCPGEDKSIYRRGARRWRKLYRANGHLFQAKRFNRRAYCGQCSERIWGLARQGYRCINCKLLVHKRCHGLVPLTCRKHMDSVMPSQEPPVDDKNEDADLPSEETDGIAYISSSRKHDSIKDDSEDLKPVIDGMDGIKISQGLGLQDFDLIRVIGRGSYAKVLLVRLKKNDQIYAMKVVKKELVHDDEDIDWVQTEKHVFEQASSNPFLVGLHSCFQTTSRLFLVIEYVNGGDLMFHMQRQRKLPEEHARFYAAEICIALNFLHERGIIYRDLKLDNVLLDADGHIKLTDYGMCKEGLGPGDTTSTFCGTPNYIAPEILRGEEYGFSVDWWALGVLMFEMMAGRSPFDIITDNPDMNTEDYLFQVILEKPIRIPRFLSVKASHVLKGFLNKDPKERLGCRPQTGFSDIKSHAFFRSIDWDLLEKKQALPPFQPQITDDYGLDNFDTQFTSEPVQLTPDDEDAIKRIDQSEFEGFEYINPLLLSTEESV
Method in brief: as §1

[3] = molecular target: 140 purified human kinases (Homo sapiens, UniProt Q86Z02)
Method in brief: as §1

[4] = molecular target: T3, 140 purified human kinases (Homo sapiens, UniProt Q96L34)
T3 sequence (Q96L34 1-752): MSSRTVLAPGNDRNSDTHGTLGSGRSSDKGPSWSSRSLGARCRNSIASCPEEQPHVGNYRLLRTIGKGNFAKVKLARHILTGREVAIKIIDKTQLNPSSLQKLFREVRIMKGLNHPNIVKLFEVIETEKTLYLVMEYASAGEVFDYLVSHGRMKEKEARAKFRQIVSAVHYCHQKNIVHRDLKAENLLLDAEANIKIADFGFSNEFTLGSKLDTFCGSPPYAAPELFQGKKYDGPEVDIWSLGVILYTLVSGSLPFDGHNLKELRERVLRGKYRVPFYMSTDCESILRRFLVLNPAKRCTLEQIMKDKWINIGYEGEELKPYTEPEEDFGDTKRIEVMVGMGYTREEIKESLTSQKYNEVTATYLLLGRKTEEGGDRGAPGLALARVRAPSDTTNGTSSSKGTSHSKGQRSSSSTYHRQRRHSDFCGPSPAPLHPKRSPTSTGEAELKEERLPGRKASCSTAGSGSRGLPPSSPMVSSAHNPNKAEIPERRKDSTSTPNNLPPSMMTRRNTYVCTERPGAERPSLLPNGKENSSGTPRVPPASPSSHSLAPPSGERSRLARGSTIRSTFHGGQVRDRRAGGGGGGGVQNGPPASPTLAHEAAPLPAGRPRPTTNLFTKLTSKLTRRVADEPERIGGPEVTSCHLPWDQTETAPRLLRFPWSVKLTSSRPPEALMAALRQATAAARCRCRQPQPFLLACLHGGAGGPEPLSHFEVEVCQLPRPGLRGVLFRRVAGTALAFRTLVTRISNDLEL
Method in brief: as §1

Sequence of 140 purified human kinases (Homo sapiens, UniProt Q86Z02) (Q86Z02 whole entry): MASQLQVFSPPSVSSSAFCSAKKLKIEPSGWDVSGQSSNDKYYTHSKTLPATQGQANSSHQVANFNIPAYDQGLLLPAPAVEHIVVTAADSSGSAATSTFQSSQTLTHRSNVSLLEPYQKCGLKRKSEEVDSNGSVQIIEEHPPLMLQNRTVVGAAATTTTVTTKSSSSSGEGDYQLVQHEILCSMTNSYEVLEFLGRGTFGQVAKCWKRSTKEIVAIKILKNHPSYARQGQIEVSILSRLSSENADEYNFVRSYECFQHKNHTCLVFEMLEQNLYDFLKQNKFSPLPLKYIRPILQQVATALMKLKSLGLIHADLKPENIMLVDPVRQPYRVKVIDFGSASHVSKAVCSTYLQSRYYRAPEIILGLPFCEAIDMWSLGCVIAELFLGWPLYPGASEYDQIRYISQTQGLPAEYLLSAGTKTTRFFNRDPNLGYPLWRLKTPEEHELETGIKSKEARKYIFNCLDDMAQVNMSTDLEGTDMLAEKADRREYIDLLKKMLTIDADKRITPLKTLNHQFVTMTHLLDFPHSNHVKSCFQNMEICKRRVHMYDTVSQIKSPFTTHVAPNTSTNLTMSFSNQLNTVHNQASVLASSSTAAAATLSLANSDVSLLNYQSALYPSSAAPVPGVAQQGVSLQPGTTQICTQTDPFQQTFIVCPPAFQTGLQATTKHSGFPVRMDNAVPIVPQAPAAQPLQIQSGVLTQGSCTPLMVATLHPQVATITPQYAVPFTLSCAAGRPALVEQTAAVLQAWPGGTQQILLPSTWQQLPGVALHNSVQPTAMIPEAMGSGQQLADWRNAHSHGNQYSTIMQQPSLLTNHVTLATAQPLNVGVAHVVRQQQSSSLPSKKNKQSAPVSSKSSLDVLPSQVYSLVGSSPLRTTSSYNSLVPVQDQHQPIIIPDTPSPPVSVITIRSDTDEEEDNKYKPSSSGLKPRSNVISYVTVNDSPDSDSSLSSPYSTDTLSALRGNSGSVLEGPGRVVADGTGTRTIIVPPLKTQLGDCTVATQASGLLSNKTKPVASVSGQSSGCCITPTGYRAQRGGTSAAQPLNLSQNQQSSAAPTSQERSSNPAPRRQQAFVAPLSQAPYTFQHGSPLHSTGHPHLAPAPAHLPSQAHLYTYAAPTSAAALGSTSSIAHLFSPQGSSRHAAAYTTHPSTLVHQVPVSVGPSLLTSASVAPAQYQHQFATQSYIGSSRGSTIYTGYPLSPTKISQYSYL

[Cu+2].[Cu+2].[Cu+2].c1ccc(-c2csc(NCCN(CCNc3nc(-c4ccccn4)cs3)CCNc3nc(-c4ccccn4)cs3)n2)nc1.c1ccc(-c2csc(NCCN(CCNc3nc(-c4ccccn4)cs3)CCNc3nc(-c4ccccn4)cs3)n2)nc1 [[L2Cu3]6+]
% Inhibition Run 1 ([1]; ULK1): 75.8% | % Inhibition Run 2 ([1]; ULK1): 76.3% | % Inhibition, Mean ([1]; ULK1): 76% | mean % activity ([1]; ULK1): 24% | % activity ([1]; ULK1, Run 1): 24.2% | % activity ([1]; ULK1, Run 2): 23.7% | % Inhibition Run 1 [2]: 92.5% | % Inhibition Run 2 [2]: 95.1% | % Inhibition, Mean [2]: 94% | mean % activity [2]: 6% | % activity ([2]; Run 1): 7.5% | % activity ([2]; Run 2): 4.9% | % Activity inhibition Mean [2]: 93.8% | % Activity inhibition Run 1 [2]: 92.5% | % Activity inhibition Run 2 [2]: 95.1% | % Activity remaining Run 1 [2]: 7.50% | % Activity remaining Run 2 [2]: 4.90% | % Inhibition Run 1 ([3]; HIPK1): 90.8% | % Inhibition Run 2 ([3]; HIPK1): 84.1% | % Inhibition, Mean ([3]; HIPK1): 87% | mean % activity ([3]; HIPK1): 13% | % activity ([3]; HIPK1, Run 1): 9.2% | % activity ([3]; HIPK1, Run 2): 15.9% | % Inhibition Run 1 ([4]; MARK4): 52.1% | % Inhibition Run 2 ([4]; MARK4): 52.2% | % Inhibition, Mean ([4]; MARK4): 52% | mean % activity ([4]; MARK4): 48% | % activity ([4]; MARK4, Run 1): 47.9% | % activity ([4]; MARK4, Run 2): 47.8%

CC(=O)[O-].CC(=O)[O-].CC(=O)[O-].CC(=O)[O-].CC(=O)[O-].CC(=O)[O-].[Zn+2].[Zn+2].[Zn+2].c1ccc(-c2csc(NCCN(CCNc3nc(-c4ccccn4)cs3)CCNc3nc(-c4ccccn4)cs3)n2)nc1.c1ccc(-c2csc(NCCN(CCNc3nc(-c4ccccn4)cs3)CCNc3nc(-c4ccccn4)cs3)n2)nc1 [[L2Zn3]6+]
% Inhibition, Mean ([1]; ULK1): 30% | mean % activity ([1]; ULK1): 70% | % activity ([1]; ULK1, duplicate runs): 58% and 82% | % Inhibition, Mean [2]: 88% | % Inhibition, Run 1 / Run 2 [2]: 89% and 87% | mean % activity [2]: 12% | % Activity inhibition Mean [2]: 88.0% | % Activity inhibition Run 1 [2]: 89% | % Activity inhibition Run 2 [2]: 87% | % Activity remaining Run 1 [2]: 11% | % Activity remaining Run 2 [2]: 13% | % activity ([2]; duplicate runs): 11% and 13% | % Inhibition, Mean ([3]; HIPK1): 14% | mean % activity ([3]; HIPK1): 86% | % activity ([3]; HIPK1, duplicate runs): 92% and 81% | % Inhibition, Mean ([4]; MARK4): 39% | % Inhibition, Run 1 / Run 2 ([4]; MARK4): 48% and 31% | mean % activity ([4]; MARK4): 61% | % activity ([4]; MARK4, duplicate runs): 52% and 70%
